# Patent publication US20240024273A1, “TOPICAL ADMINISTRATION OF 2-(DIETHYLAMINO)ETHYL 2-(4-ISOBUTYLPHENYL)PROPRIONATE FOR TREATMENT OF DISEASES” (TECHFIELDS PHARMA CO., LTD., priority 2020, published 2024)
# Tested on: Subjects with Osteoarthritis of the Knee
# Assay: Second Phase 2 study: safety (treatment-emergent adverse events)
# Format: in vivo, human
# Settings: 17.5 mg/knee, BID, N = 70
# From the text: Safety assessments will be performed at each visit and will include assessment of AEs, vital signs (blood pressure, pulse rate, and oral temperature), clinical laboratories, physical examination, skin irritation, and electrocardiograms (ECGs) as indicated in the study flow chart, Table 47.
# Safety assessments will include AEs, vital signs (blood pressures, pulse rate, and oral temperature), clinical laboratories, physical examination, skin irritation, and ECGs at various time points during the study as indicated in the study flow chart.
# Adverse events of interest include: local skin reactions around the treated knee(s), upper stomach pain, GI bleeding, serious cardiovascular side effects (e.g., thrombotic events, myocardial infarction, or stroke), jaundice, elevated liver function tests, and nausea.
# Safety analyses will be conducted on the SAS. Safety parameters will be listed and summarized using standard descriptive statistics, as appropriate. No formal statistical analyses are planned.
smiles,measurement,value
CCN(CC)CCOC(=O)C(C)c1ccc(CC(C)C)cc1 (stereo not shown) [2-(diethylamino)ethyl 2-(4-isobutylphenyl)propionate],Aspartate Aminotransferase Increased: number of adverse events,1
same,Aspartate Aminotransferase Increased: percentage of subjects with adverse events,1.4%
same,Aspartate Aminotransferase Increased: subjects with adverse events,1
same,Back Pain: number of adverse events,1(%)[1]
same,"Back Pain: subjects with adverse events, number (percentage)",1(%)[1]
same,Constipation: number of adverse events,1
same,Constipation: percentage of subjects with adverse events,1.4%
same,Constipation: subjects with adverse events,1
same,Cough: number of adverse events,2
same,"Cough: subjects with adverse events, number (percentage)",2(2.9%)
same,Dizziness: number of adverse events,1
same,"Dizziness: subjects with adverse events, number (percentage)",1(1.4%)
same,Frequency of Positive Fecal Occult Blood Test,5
same,Gastrointestinal Disorders: number of adverse events,5
same,Gastrointestinal Disorders: percentage of subjects with adverse events,5.7%
same,Gastrointestinal Disorders: subjects with adverse events,4
same,Gout: number of adverse events,1
same,Gout: percentage of subjects with adverse events,1.4%
same,Gout: subjects with adverse events,1
same,Headache: number of adverse events,1
same,"Headache: subjects with adverse events, number (percentage)",1(1.4%)
same,Hypercholesterolaemia: number of adverse events,2
same,Hypercholesterolaemia: percentage of subjects with adverse events,2.9%
same,Hypercholesterolaemia: subjects with adverse events,2
same,Hypertriglyceridemia: number of adverse events,6
same,Hypertriglyceridemia: percentage of subjects with adverse events,8.6%
same,Hypertriglyceridemia: subjects with adverse events,6
same,Infections and Infestations: number of adverse events,14
same,"Infections and Infestations: subjects with adverse events, number (percentage)",13(18.6%)
same,Investigations: number of adverse events,1
same,Investigations: percentage of subjects with adverse events,1.4%
same,Investigations: subjects with adverse events,1
same,Metabolism and Nutrition Disorders: number of adverse events,9
same,Metabolism and Nutrition Disorders: percentage of subjects with adverse events,11.4%
same,Metabolism and Nutrition Disorders: subjects with adverse events,9
same,Muscle Spasms: number of adverse events,3
same,"Muscle Spasms: subjects with adverse events, number (percentage)",2
same,Musculoskeletal Pain: number of adverse events,2
same,"Musculoskeletal Pain: subjects with adverse events, number (percentage)",1
same,"Musculoskeletal and Connective Tissue Disorders, Overall Total: number of adverse events",8
same,"Musculoskeletal and Connective Tissue Disorders, Overall Total: subjects with adverse events, number (percentage)",6(8.6%)
same,Neck Pain: number of adverse events,1(%)[1]
same,"Neck Pain: subjects with adverse events, number (percentage)",1(%)[1]
same,Nervous System Disorders: number of adverse events,2
same,"Nervous System Disorders: subjects with adverse events, number (percentage)",2(2.9%)
same,Pain in Extremity: number of adverse events,1(%)[1]
same,"Pain in Extremity: subjects with adverse events, number (percentage)",1(%)[1]
same,Rash: number of adverse events,2
same,Rash: percentage of subjects with adverse events,4.2%
same,Rash: subjects with adverse events,2
same,"Respiratory, Thoracic and Mediastinal Disorders: number of adverse events",2
same,"Respiratory, Thoracic and Mediastinal Disorders: subjects with adverse events, number (percentage)",2(2.9%)
same,Skin Irritation: number of adverse events,4
same,Skin Irritation: percentage of subjects with adverse events,1.4%
same,Skin Irritation: subjects with adverse events,3
same,Skin and Subcutaneous Tissue Disorders: number of adverse events,6
same,Skin and Subcutaneous Tissue Disorders: percentage of subjects with adverse events,7.1%
same,Skin and Subcutaneous Tissue Disorders: subjects with adverse events,5
same,Subjects with Positive Fecal Occult Blood Test,5
same,"Subjects with Positive Fecal Occult Blood Test, percentage",7.1%
same,Toothache: number of adverse events,1
